Assay results: the OPERA property sets (Mansouri et al. 2018)

| SMILES | logP |
| --- | --- |
| O=C1NC(=O)C(c2ccccc2)(c2ccccc2)N1S(=O)(=O)c1ccc([N+](=O)[O-])cc1 | 4.04 |
| CCC(C(N)=O)c1ccc(-n2sc3ccccc3c2=O)cc1 (stereo unspecified) | 2.58 |
| COc1cccc(OC)c1C(=O)Nc1nnc(-c2ccc(Cl)cc2)s1 | 3.96 |
| CCCN(CCCl)c1c([N+](=O)[O-])cc(C(F)(F)F)cc1[N+](=O)[O-] | 4.63 |
| COC(=O)c1ccc(-n2sc3ccccc3c2=O)cc1 | 3.49 |
| OC1(Cn2cncn2)CCCC1Cc1ccc(Cl)cc1 (stereo unspecified) | 3.11 |
| NC(=O)Cc1ccc(-n2sc3ccccc3c2=O)cc1 | 1.72 |
| CC(=O)NC(CCCNC(=O)N(C)N=O)C(=O)NCc1ccccc1 (stereo unspecified) | 0.98 |
| CCCCCCn1c(N)c(N)c(=O)[nH]c1=O | 1.01 |
| CCCN(CCCCC(NC(C)=O)C(=O)NCc1ccccc1)C(=O)NC (stereo unspecified) | 1.6 |
| CNC(=O)ON=C(CSC)C(C)(C)C | 2.75 |
| c1ccc(CC2CC3=NOS4=C3C(=NO4)C2)cc1 | 2.8 |
| COc1cccc(OC)c1C(=O)Nc1nnc(-c2ccccc2)s1 | 3.5 |
| OC1(Cn2cncn2)CCCC1Cc1ccc(-c2ccccc2)cc1 (stereo unspecified) | 3.92 |
| CC(=O)NC(CCCCNC(=O)NCCCl)C(=O)NCc1ccccc1 (stereo unspecified) | 0.61 |
| CC1(C)CC2=NOS3=C2C(=NO3)C1 | 1.9 |
| CCCc1ccc(OC(=O)N(C)C)cc1 | 3.15 |
| CCCCCCOc1ccccc1NC(=O)OC1CCCCC1CN(C)C (stereo unspecified) | 5.9 |
| C#CCON=CNc1cc(Cl)c(OCC#C)c(OCC#C)c1 | 2.3 |
| CCc1cccc(OC(=O)N(C)C)c1 | 2.47 |
| CCCN1CCN(CCC)C1=S | 1.86 |
| CCOC(=O)NC1CCc2cc(OC)c(OC)c(OC)c2-c2ccc(OC)c(=O)cc21 (stereo unspecified) | 2.3 |
| C#CCNC(=O)NCCCC(NC(C)=O)C(=O)NCc1ccccc1 (stereo unspecified) | -0.31 |
| Cn1c(N)c(N)c(=O)[nH]c1=O | -1.4 |
| N#CN=C1NCCN1Cc1ccc(Cl)nc1 | 0.77 |
| CCC(=O)Oc1ccccc1C(=O)O | 1.67 |
| CCc1ccc(OC(=O)N(C)C)cc1 | 2.55 |

More lines, now with the values ahead:

| logP | SMILES |
| --- | --- |
| 1.49 | CC(=O)Oc1cccc(C(=O)O)c1 |
| 1.98 | CCN(CCO)C(=O)COC(=O)Cc1ccc2cc(OC)ccc2c1 |
| 2.23 | COc1ccc2cc(CC(=O)OCC(=O)N(C)C)ccc2c1 |
| 2.65 | CCNC(=O)COC(=O)Cc1ccc2cc(OC)ccc2c1 |
| -0.4 | CC(=O)Nc1n[n+]([O-])c2cc(C)ccc2[n+]1[O-] |
| 2.78 | CCOc1ccc(NC(=O)OCCBr)cc1OCC |
| 0.56 | Cc1ccnc(N)c1 |
| 2.56 | CCOc1ccc(NC(=O)OC(C)COC)cc1OCC (stereo unspecified) |
| 3.31 | CCC(C)NC(=O)COC(=O)Cc1ccc2cc(OC)ccc2c1 (stereo unspecified) |
| 3.37 | C=CCC(C)OC(=O)Nc1ccc(OCC)c(OCC)c1 (stereo unspecified) |
| 3.89 | CCOC(=O)C(C)Oc1ccc(-n2sc3ccccc3c2=O)cc1 (stereo unspecified) |
| 1.9 | C#CCOc1ccc(NC=NOCC)cc1OCC#C |
| 0.56 | Cc1cc2c(cc1C)[n+]([O-])c(N)n[n+]2[O-] |
| 0.76 | C=CCOc1ccc2c(c1)[n+]([O-])nc(N)[n+]2[O-] |
